Laboratory results: publication PMC7316778 (Nature Communications, 2020)
Like-named read-outs stand apart in the source and are kept apart here.

Tests used:
[1] = molecular target: ACVR2A (Homo sapiens, UniProt P27037); test: SelectScreen kinase assay
Experimental: (§1) Selectivity profiling assays were performed by the Invitrogen SelectScreen™ Services. […] The concentration of ATP was selected to be equal to the KM, unless indicated otherwise.

[2] = molecular target: T1, AURKA (Aurora A) (Homo sapiens, UniProt O14965); test: SelectScreen kinase assay
T1 sequence (O14965 1-403): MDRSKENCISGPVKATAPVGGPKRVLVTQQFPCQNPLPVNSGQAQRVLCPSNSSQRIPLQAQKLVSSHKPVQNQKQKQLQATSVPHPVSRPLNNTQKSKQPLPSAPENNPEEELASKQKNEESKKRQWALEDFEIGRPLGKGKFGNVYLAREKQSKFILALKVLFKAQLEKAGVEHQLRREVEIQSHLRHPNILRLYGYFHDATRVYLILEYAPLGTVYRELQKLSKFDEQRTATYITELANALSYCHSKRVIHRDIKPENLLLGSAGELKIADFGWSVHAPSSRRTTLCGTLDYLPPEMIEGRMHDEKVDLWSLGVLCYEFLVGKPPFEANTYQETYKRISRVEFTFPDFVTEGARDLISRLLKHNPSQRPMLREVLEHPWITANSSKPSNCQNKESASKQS
Experimental: as §1

[3] = molecular target: T2, MAPK15 (ERK7) (Homo sapiens, UniProt Q8TD08); test: SelectScreen kinase assay
T2 sequence (Q8TD08 1-544): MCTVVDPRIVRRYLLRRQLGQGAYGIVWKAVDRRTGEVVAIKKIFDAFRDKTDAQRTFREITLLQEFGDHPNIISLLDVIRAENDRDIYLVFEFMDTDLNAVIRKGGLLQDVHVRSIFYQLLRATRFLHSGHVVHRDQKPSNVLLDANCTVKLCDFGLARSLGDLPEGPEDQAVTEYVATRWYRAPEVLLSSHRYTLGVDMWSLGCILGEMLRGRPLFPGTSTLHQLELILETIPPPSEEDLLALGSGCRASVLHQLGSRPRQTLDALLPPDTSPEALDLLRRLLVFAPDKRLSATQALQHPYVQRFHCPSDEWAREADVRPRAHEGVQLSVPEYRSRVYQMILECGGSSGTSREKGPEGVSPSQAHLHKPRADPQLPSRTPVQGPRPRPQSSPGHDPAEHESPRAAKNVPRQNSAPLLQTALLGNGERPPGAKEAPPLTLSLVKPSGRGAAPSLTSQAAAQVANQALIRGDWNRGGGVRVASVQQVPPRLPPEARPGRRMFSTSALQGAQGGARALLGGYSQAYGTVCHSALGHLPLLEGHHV
Experimental: as §1

[4] = molecular target: T3, MYO3B (MYO3 beta) (Homo sapiens, UniProt Q8WXR4); test: SelectScreen kinase assay
T3 sequence (Q8WXR4 1-1341): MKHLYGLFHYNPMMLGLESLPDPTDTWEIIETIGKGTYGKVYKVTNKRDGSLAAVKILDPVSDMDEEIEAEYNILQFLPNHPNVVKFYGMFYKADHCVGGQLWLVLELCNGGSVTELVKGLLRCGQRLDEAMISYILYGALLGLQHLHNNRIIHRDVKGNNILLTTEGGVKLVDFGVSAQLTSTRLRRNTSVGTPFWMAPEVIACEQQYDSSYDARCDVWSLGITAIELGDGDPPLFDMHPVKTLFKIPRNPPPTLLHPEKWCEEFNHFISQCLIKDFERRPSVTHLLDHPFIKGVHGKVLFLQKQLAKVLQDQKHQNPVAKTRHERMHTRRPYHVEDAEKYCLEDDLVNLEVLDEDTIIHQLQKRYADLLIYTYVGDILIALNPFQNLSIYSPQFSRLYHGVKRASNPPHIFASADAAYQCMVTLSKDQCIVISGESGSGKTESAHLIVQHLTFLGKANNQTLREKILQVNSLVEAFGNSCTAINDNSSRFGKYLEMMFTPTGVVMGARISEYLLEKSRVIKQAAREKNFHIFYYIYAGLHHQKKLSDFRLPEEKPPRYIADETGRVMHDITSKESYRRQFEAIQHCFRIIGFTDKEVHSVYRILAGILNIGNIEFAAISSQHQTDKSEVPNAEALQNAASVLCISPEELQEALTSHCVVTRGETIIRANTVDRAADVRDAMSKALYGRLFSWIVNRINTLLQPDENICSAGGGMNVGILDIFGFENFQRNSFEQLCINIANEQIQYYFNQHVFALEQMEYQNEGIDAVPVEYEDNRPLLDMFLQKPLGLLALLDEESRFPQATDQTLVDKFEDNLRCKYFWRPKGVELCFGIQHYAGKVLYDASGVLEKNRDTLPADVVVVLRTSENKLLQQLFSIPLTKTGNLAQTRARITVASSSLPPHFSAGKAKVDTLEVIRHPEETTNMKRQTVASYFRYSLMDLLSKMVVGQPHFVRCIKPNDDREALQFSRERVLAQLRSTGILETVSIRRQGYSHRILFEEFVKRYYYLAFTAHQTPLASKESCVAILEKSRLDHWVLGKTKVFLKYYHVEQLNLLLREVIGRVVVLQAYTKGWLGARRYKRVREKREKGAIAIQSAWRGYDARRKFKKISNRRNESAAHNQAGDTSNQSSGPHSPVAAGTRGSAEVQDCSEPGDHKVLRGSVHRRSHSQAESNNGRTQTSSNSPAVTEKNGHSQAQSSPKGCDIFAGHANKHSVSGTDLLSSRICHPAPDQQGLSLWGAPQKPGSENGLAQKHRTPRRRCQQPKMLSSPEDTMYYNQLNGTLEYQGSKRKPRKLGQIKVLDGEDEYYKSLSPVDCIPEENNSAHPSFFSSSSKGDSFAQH
Experimental: as §1

[5] = molecular target: PKN2 (PRK2) (Homo sapiens, UniProt Q16513); test: SelectScreen kinase assay
PKN2 (PRK2), sequence (Q16513 whole entry): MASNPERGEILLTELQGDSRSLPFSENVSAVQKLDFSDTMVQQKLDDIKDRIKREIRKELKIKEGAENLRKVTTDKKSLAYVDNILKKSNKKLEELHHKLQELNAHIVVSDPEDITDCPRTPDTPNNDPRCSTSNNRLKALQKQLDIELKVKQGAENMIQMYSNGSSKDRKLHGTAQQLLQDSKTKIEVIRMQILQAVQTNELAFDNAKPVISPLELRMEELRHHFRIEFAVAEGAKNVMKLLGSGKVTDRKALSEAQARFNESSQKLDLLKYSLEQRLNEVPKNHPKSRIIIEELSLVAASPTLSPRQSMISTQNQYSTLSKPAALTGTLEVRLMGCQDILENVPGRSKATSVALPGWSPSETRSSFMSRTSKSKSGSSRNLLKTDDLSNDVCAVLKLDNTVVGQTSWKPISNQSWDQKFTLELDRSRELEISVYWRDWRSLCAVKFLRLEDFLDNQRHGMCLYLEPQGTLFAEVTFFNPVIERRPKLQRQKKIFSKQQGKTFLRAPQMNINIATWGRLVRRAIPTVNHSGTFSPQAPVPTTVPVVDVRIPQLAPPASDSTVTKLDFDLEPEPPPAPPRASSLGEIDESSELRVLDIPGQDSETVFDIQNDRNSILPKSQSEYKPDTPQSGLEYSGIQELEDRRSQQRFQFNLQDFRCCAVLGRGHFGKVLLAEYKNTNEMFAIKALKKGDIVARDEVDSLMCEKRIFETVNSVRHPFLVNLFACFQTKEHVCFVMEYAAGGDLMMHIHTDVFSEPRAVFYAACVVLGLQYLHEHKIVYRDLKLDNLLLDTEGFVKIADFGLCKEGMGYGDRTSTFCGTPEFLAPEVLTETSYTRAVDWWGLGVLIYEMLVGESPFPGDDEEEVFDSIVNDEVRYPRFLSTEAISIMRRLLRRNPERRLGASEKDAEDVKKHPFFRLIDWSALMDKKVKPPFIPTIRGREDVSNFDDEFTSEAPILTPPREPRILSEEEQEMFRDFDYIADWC
Experimental: as §1

[6] = molecular target: STK38 (NDR) (Homo sapiens, UniProt Q15208); test: SelectScreen kinase assay; settings: for Inhibition at 1 µM (%): LanthaScreen Binding
STK38 (NDR), sequence (Q15208 whole entry): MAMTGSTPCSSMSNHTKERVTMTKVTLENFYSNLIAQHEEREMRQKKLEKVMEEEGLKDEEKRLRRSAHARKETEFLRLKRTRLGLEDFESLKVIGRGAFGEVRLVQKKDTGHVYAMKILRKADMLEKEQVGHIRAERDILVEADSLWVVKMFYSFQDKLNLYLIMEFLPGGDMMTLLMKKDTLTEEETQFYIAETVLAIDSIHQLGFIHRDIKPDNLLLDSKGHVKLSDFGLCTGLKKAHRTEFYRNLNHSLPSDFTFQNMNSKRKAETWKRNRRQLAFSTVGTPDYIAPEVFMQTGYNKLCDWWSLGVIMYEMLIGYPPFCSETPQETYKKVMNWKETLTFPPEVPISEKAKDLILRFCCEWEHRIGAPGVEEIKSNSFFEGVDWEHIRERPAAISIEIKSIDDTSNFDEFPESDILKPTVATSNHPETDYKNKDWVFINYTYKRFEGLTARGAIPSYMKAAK
Experimental: as §1

[7] = molecular target: FER^WT (Homo sapiens, UniProt P16591); test: In vitro TR-FRET kinase assay
FER^WT, sequence (P16591 448-820): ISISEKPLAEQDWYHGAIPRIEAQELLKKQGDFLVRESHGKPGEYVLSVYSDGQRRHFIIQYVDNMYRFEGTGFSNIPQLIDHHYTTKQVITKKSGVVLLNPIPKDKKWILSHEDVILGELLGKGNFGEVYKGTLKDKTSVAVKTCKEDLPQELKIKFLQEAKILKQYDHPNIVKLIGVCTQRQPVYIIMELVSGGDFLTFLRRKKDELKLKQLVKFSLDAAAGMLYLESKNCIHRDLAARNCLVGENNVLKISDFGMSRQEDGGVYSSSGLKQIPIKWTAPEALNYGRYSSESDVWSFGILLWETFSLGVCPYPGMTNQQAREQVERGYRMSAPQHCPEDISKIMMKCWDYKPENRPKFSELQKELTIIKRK

[8] = 1 h, 1 μM WEL028, 1 h preincubation

ACVR2A, sequence (P27037 20-513): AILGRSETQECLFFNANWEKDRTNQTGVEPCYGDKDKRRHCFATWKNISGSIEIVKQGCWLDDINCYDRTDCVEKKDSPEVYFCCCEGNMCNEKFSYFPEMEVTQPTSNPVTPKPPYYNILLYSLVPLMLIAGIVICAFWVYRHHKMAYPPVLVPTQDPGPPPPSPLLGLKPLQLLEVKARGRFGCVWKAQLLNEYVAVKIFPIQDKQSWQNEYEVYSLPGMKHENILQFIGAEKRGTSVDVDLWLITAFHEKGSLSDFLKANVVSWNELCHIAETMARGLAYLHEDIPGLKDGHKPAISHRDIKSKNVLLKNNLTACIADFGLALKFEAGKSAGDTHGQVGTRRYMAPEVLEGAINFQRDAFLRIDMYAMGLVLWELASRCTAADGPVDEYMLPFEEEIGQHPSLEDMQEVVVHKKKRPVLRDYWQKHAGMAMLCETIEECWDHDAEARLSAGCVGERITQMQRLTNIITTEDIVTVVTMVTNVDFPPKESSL

In the case of `C#CCOc1ccc(Nc2ncc(Cl)c(Nc3ccccc3NC(=O)C=C)n2)c(OC)c1` [Compound 6], the inhibition at 1 µM [1, 8] is reported as 5%, the “Inhibition at 1 µM (%)” value ([1]; ACVR2A, 1 µM, LanthaScreen Binding, listed as WEL028, 1 µM) is reported as 6% and the inhibition at 1 µM ([1]; read-out: Inhibition at 1 µM (%), ACVR2A, 1 µM, LanthaScreen Binding) is reported as 4%. The IC50 [2] was 631 nM, the inhibition at 1 µM [2, 8] was 74% and the inhibition at 10 µM ([2]; 1 h, log[inhibitor] (M) -5.00, ZLYTE, ATP Km app) was 100%. For the same compound, the inhibition at 3.31 µM ([2]; 1 h, log[inhibitor] (M) -5.48, ZLYTE, ATP Km app) was 90%, the inhibition at 1.12 µM ([2]; 1 h, log[inhibitor] (M) -5.95, ZLYTE, ATP Km app) was 69% and the inhibition at 0.372 µM ([2]; 1 h, log[inhibitor] (M) -6.43, ZLYTE, ATP Km app) was 46%. The inhibition at 0.123 µM ([2]; 1 h, log[inhibitor] (M) -6.91, ZLYTE, ATP Km app) was 28%, the inhibition at 0.04074 µM ([2]; 1 h, log[inhibitor] (M) -7.39, ZLYTE, ATP Km app) was 16% and the inhibition at 0.0138 µM ([2]; 1 h, log[inhibitor] (M) -7.86, ZLYTE, ATP Km app) was 8%. For the same compound, the inhibition at 0.004571 µM ([2]; 1 h, log[inhibitor] (M) -[…], ZLYTE, ATP Km app) was 3%, the “Inhibition at 1 µM (%)” value ([2]; AURKA (Aurora A), 1 µM, ZLYTE, ATP Km app, listed as WEL028, 1 µM) was 70% and the Apparent fold selectivity ([2]; IC50 on that kinase divided by IC50 on FES^S700C) was 155 fold. For the same compound, the inhibition at 1 µM ([2]; read-out: Inhibition at 1 µM (%), AURKA (Aurora A), 1 µM, ZLYTE, ATP Km app) was 78%, the inhibition at 1 µM [3, 8] was 5% and the “Inhibition at 1 µM (%)” value ([3]; MAPK15 (ERK7), 1 µM, LanthaScreen Binding, listed as WEL028, 1 µM) was 4%. For the same compound, the inhibition at 1 µM ([3]; read-out: Inhibition at 1 µM (%), MAPK15 (ERK7), 1 µM, LanthaScreen Binding) was 7%, the inhibition at 1 µM [4, 8] was 14% and the “Inhibition at 1 µM (%)” value ([4]; MYO3B (MYO3 beta), 1 µM, LanthaScreen Binding, listed as WEL028, 1 µM) was 13%. For the same compound, the inhibition at 1 µM ([4]; read-out: Inhibition at 1 µM (%), MYO3B (MYO3 beta), 1 µM, LanthaScreen Binding) was 15%, the inhibition at 1 µM [5, 8] was 8% and the “Inhibition at 1 µM (%)” value ([5]; PKN2 (PRK2), 1 µM, LanthaScreen Binding, listed as WEL028, 1 µM) was 9%. The inhibition at 1 µM ([5]; read-out: Inhibition at 1 µM (%), PKN2 (PRK2), 1 µM, LanthaScreen Binding) was 6%, the “Inhibition at 1 µM (%)” value [6] was 2% and the “Inhibition at 1 µM (%)” value ([6]; listed as WEL028, 1 µM) was 6%. For the same compound, the inhibition at 1 µM [6, 8] was 4% and the IC50 [7] was 501 nM.
